# Patent US7785828B1 (priority 2003, dated 2010)
# Like-named read-outs stand apart in the source and are kept apart here.
# Tests used:
# Format in all cases: cell-based
# [1] = test system: Fusarium graminearum
# [2] = test system: Septoria tritici
# [3] = test system: Mycosphaerella fijiensis
# [4] = test system: Fusarium graminearum
# [5] = Table 2B (Dm-AMP1 based libraries), improvement compared to reference defensin protein (Rs-AFP2 for Table 2B [sic])
# [6] = Table 2C (mixed diversity library), improvement compared to reference defensin protein DmAMP
Substance,"Antifungal activity, Septoria tritici (improvement compared to DmAMP1) [2]","Antifungal activity, Mycosphaerella fijiensis (improvement compared to DmAMP1) [3]","Activity (1): antifungal activity of the NP against Fusarium graminearium [4, 5]",other results
NLCEKASKTWTGNCGNTKHCDNQCRNWEGAKHGACHVRSGKHKCFCYFNC (Defensin like) [L9-22],+++ (key: + indicating 1- to 5-fold improvement compared to DmAMP1; ++ indicating >5- to 10-fold improvement; +++ indicating >10-fold improvement),+ (key: + indicating 1- to 5-fold improvement compared to DmAMP1; ++ indicating >5- to 10-fold improvement; +++ indicating >10-fold improvement),,"Antifungal activity, Fusarium graminearum (improvement compared to DmAMP1) [1]: +++ (key: + indicating 1- to 5-fold improvement compared to DmAMP1; ++ indicating >5- to 10-fold improvement; +++ indicating >10-fold improvement)"
NLCEKASKTWTGNCGNTKHCDTQCKSWEGAKHGACHKRNGKWKCFCYFNC (Defensin like) [L5-22],++ (key: + indicating 1- to 5-fold improvement compared to DmAMP1; ++ indicating >5- to 10-fold improvement; +++ indicating >10-fold improvement),+ (key: + indicating 1- to 5-fold improvement compared to DmAMP1; ++ indicating >5- to 10-fold improvement; +++ indicating >10-fold improvement),,"Antifungal activity, Fusarium graminearum (improvement compared to DmAMP1) [1]: ++ (key: + indicating 1- to 5-fold improvement compared to DmAMP1; ++ indicating >5- to 10-fold improvement; +++ indicating >10-fold improvement)"
NLCERASKTWTGNCGNTKHCDTQCRSWEGAAHGACHVRSGKHKCFCYFNC (Defensin like) [L5-23],+ (key: + indicating 1- to 5-fold improvement compared to DmAMP1; ++ indicating >5- to 10-fold improvement; +++ indicating >10-fold improvement),+ (key: + indicating 1- to 5-fold improvement compared to DmAMP1; ++ indicating >5- to 10-fold improvement; +++ indicating >10-fold improvement),,"Antifungal activity, Fusarium graminearum (improvement compared to DmAMP1) [1]: + (key: + indicating 1- to 5-fold improvement compared to DmAMP1; ++ indicating >5- to 10-fold improvement; +++ indicating >10-fold improvement)"
NLCERASKTWSGNCGNTKHCDTQCKSWEGAAHGACHVRNGKHKCFCYFNC (Defensin like) [L6-27],+++ (key: + indicating 1- to 5-fold improvement compared to DmAMP1; ++ indicating >5- to 10-fold improvement; +++ indicating >10-fold improvement),+ (key: + indicating 1- to 5-fold improvement compared to DmAMP1; ++ indicating >5- to 10-fold improvement; +++ indicating >10-fold improvement),,"Antifungal activity, Fusarium graminearum (improvement compared to DmAMP1) [1]: +++ (key: + indicating 1- to 5-fold improvement compared to DmAMP1; ++ indicating >5- to 10-fold improvement; +++ indicating >10-fold improvement)"
NLCERASKTWTGNCGNTKHCDNQCKSWEGAAHGACHVRNGKHKCFCYFNC (Defensin like) [L5-24],++ (key: + indicating 1- to 5-fold improvement compared to DmAMP1; ++ indicating >5- to 10-fold improvement; +++ indicating >10-fold improvement),+ (key: + indicating 1- to 5-fold improvement compared to DmAMP1; ++ indicating >5- to 10-fold improvement; +++ indicating >10-fold improvement),,"Antifungal activity, Fusarium graminearum (improvement compared to DmAMP1) [1]: +++ (key: + indicating 1- to 5-fold improvement compared to DmAMP1; ++ indicating >5- to 10-fold improvement; +++ indicating >10-fold improvement)"
NLCERASKTWSGNCGNTKHCDNQCRNWEGAKHGACHKRSGKWKCFCYFNC (Defensin like) [L9-30],+ (key: + indicating 1- to 5-fold improvement compared to DmAMP1; ++ indicating >5- to 10-fold improvement; +++ indicating >10-fold improvement),+ (key: + indicating 1- to 5-fold improvement compared to DmAMP1; ++ indicating >5- to 10-fold improvement; +++ indicating >10-fold improvement),,"Antifungal activity, Fusarium graminearum (improvement compared to DmAMP1) [1]: ++ (key: + indicating 1- to 5-fold improvement compared to DmAMP1; ++ indicating >5- to 10-fold improvement; +++ indicating >10-fold improvement)"
NLCEKASKTWTGNCGNTKHCDTQCKNWEGAKHGACHVRNGKWKCFCYFNC (Defensin like) [L6-69],+++ (key: + indicating 1- to 5-fold improvement compared to DmAMP1; ++ indicating >5- to 10-fold improvement; +++ indicating >10-fold improvement),+ (key: + indicating 1- to 5-fold improvement compared to DmAMP1; ++ indicating >5- to 10-fold improvement; +++ indicating >10-fold improvement),,"Antifungal activity, Fusarium graminearum (improvement compared to DmAMP1) [1]: +++ (key: + indicating 1- to 5-fold improvement compared to DmAMP1; ++ indicating >5- to 10-fold improvement; +++ indicating >10-fold improvement)"
DGVKLCEKASQTWSGNCGNTKHCDTQCRNWEGAKHGACHKRNGKWKCFCYFNC (Defensin like) [L7-174],++ (key: + indicating 1- to 5-fold improvement compared to DmAMP1; ++ indicating >5- to 10-fold improvement; +++ indicating >10-fold improvement),+ (key: + indicating 1- to 5-fold improvement compared to DmAMP1; ++ indicating >5- to 10-fold improvement; +++ indicating >10-fold improvement),,"Antifungal activity, Fusarium graminearum (improvement compared to DmAMP1) [1]: +++ (key: + indicating 1- to 5-fold improvement compared to DmAMP1; ++ indicating >5- to 10-fold improvement; +++ indicating >10-fold improvement)"
NLCERASKTWTGNCGNTKHCDTQCRSWEGAKHGACHVRNGKHKCFCYFNC (Defensin like) [L6-42],,,+ (+ indicates a 1- to 5-fold improvement in activity compared to a reference defensin protein),
NLCERASKTWTGNCGNTKHCDNQCRNWEGAKHGACHVRSGKHKCFCYFNC (Defensin like) [L6-20],,,++ (++ indicates a >5- to 10-fold improvement),
NLCERASKTWTGNCGNTKHCDNQCKSWEGAKHGACHVRSGKHKCFCYFNC (Defensin like) [L5-37],,,++ (++ indicates a >5- to 10-fold improvement),
NLCERASKTWTGNCGNTKHCDTQCRSWEGAKHGACHVRSGKHKCFCYFNC (Defensin like) [L5-32],,,+ (+ indicates a 1- to 5-fold improvement in activity compared to a reference defensin protein),
NLCERASKTWTGNCGNTKHCDTQCKIWEGAKHGACHKRSGKWKCFCYFNC (Defensin like) [L3-77],,,++ (++ indicates a >5- to 10-fold improvement),
NLCERASKTWSGDCGNTKHCDNQCRNWEGAKHGACHKRNGKWKCFCYFNC (Defensin like) [L10-62],,,++ (++ indicates a >5- to 10-fold improvement),
NLCERASKTWTGNCGNTKHCDNQCKSWEGAKHGACHKRNGKWKCFCYFNC (Defensin like) [L10-51],,,++ (++ indicates a >5- to 10-fold improvement),
NLCERASLTWTGNCGNTKHCDTQCKNWEGAKHGACHVRNGKWKCFCYFNC (Defensin like) [L3-02],,,++ (++ indicates a >5- to 10-fold improvement),
NLCERASKTWSGNCGNTKHCDNQCRNWEGAAHGACHVRNGKHKCFCYFNC (Defensin like) [L6-59],+ (key: + indicating 1- to 5-fold improvement compared to DmAMP1; ++ indicating >5- to 10-fold improvement; +++ indicating >10-fold improvement),+ (key: + indicating 1- to 5-fold improvement compared to DmAMP1; ++ indicating >5- to 10-fold improvement; +++ indicating >10-fold improvement),,
NLCERASKTWTGNCGNTKHCDNQCKSWEGAKHGACHKRSGKWKCFCYFNC (Defensin like) [L9-04],,,++ (++ indicates a >5- to 10-fold improvement),
NLCERASKTWTGNCGNTKHCDNQCRNWEGAKHGACHVRNGKWKCFCYFNC (Defensin like) [L6-07],,,+++ (+++ indicates a >10-fold improvement),
DGVKLCERASKTWTGHCGNTKHCDKQCKNWEKAAHGACHVRNGKWKCFCYFNC (DGVKLCERASKTWSGHCGNTKHCDKQCKNWEKAAHGACHVRNGKWKCFCYFSC; Defensin like) [L7-93],,,,"Activity (1): antifungal activity of the NP against Fusarium graminearium [4, 6]: +++ (+++ indicates a >10-fold improvement)"
DGVKLCERASKTWSGHCGNTKHCDNQCRSWEGAKHGACHVRSGKHKCFCYFNC (Defensin like) [L7-213],,,,"Activity (1): antifungal activity of the NP against Fusarium graminearium [4, 6]: ++ (++ indicates a >5- to 10-fold improvement)"
--QKLCEKASKTWTGNCGNTKHCDKQCRSWEKAKHGACHVRNGKWKCFCYFNC (Defensin like) [L7-59],,,,"Activity (1): antifungal activity of the NP against Fusarium graminearium [4, 6]: ++ (++ indicates a >5- to 10-fold improvement)"
NLCERASKTWTGNCGNTKHCDTQCRSWEGAKHGACHKRNGKWKCFCYFNC (Defensin like) [L10-14],,,++ (++ indicates a >5- to 10-fold improvement),
NLCERASKTWTGNCGNTKHCDNQCKNWEGAKHGACHVRSGKHKCFCYFNC (Defensin like) [L6-23],,,++ (++ indicates a >5- to 10-fold improvement),
NLCERASKTWTGNCGNTKHCDTQCKSWEGAKHGACHKRSGKWKCFCYFNC (Defensin like) [L5-21],,,+ (+ indicates a 1- to 5-fold improvement in activity compared to a reference defensin protein),
NLCERASKTWTGNCGNTKHCDTQCRNWEGAKHGACHVRNGKWKCFCYFNC (Defensin like) [L5-46],,,+ (+ indicates a 1- to 5-fold improvement in activity compared to a reference defensin protein),
NLWEKASLTWTGNCGNTKHCDNQCKNWESAAHGACHKRSGKWMCFCYFNC (Defensin like) [L4-1],,,+ (+ indicates a 1- to 5-fold improvement in activity compared to a reference defensin protein),
